From US9334264B2, “NAMPT inhibitors” (AbbVie Inc., priority 2012, dated 2016) come the findings set out here.

Experiment [1] concerns the target NAMPT (human, recombinant, C-terminally His-tagged) (Homo sapiens, UniProt P43490). Kind of experiment: Time-Resolved Fluorescence Resonance Energy Transfer (TR-FRET) Binding Assay of NAMPT. Particulars: absence of substrates; 6.8 nM NAMPT, 200 nM probe, equilibrated 3 hours. An outline of the steps: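 Compounds (typically 11 half-log dilutions, 2% DMSO final) equilibrated 3 h at room temperature with 6.8 nM human C-His NAMPT, 1 nM Tb-anti-His antibody and 200 nM fluorescent competitive probe in pH 7.5 HEPES buffer. IC50 derived by logistic fit of normalized TR-FRET ratio (520/495 nm).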
In general terms: TR-FRET usually uses a lanthanide donor and a delayed reading to cut background.

Experiment [2] has as its target NAMPT (Homo sapiens, UniProt P43490). Kind of experiment: Time-Resolved Fluorescence Resonance Energy Transfer (TR-FRET) Binding Assay of NAMPT with PRPP. Particulars: 200 μM PRPP and 2.5 mM ATP; 2 nM NAMPT, 2 nM probe, equilibrated 16 hours. The method, boiled down: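 Compounds were equilibrated for 16 hours before TR-FRET readout, with substrates present (200 μM PRPP, 2.5 mM ATP) to permit enzymatic modification. Final mix: 2 nM His-tagged NAMPT, 2 nM probe, 1 nM Tb-anti-His antibody, 2% DMSO.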

NAMPT, sequence (P43490 whole entry): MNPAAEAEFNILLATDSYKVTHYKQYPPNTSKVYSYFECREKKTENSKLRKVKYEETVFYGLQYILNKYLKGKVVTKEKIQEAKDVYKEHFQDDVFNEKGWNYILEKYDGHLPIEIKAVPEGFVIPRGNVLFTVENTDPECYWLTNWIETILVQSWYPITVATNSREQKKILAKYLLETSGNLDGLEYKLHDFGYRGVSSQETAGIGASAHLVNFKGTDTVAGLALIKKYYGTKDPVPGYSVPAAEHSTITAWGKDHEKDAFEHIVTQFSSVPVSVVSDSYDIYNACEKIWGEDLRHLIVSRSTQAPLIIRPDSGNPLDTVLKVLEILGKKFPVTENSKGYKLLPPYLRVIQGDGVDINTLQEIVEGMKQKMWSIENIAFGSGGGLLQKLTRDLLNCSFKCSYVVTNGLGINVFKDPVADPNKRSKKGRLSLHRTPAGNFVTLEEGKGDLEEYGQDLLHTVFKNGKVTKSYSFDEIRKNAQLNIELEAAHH
NAMPT (human, recombinant, C-terminally His-tagged), sequence (P43490 whole entry): as above

By IC50 is commonly meant the concentration needed to halve the response being measured. As for `CC(C)CCN(C(=O)[C@@H](C)Oc1ccccc1)c1ncc(C(=O)NCCCn2ccnc2)s1` [Example 133, N-[3-(1H-imidazol-1-yl)propyl]-2-{(3-methylbutyl)[(2R)-2-phenoxypropanoyl]amino}-1,3-thiazole-5-carboxamide], the values for the IC50 in experiment [1] and in experiment [2] were 58.9 nM and 0.527 nM, respectively.

Take `CC(C)CCN(C(=O)[C@H](C)Oc1ccccc1)c1ncc(C(=O)NCCCn2ccnc2)s1` [Example 134, N-[3-(1H-imidazol-1-yl)propyl]-2-{(3-methylbutyl)[(2S)-2-phenoxypropanoyl]amino}-1,3-thiazole-5-carboxamide]: the IC50 in experiment [1] was determined as 200 nM; in experiment [2], 0.617 nM.

`Cc1cc(C(=O)N(CCC(C)C)c2ncc(C(=O)NCCCn3ccnc3)s2)no1` [Example 135, N-(5-{[3-(1H-imidazol-1-yl)propyl]carbamoyl}-1,3-thiazol-2-yl)-5-methyl-N-(3-methylbutyl)-1,2-oxazole-3-carboxamide]: the IC50 came out at 93.7 nM in experiment [1] and 0.169 nM in experiment [2].

As to `CC(C)CCN(C(=O)COc1ccccc1)c1ncc(C(=O)NCCCn2ccnc2)s1` [Example 136, N-[3-(1H-imidazol-1-yl)propyl]-2-[(3-methylbutyl)(phenoxyacetyl)amino]-1,3-thiazole-5-carboxamide], the half-maximal inhibitory concentration (IC50) in experiment [1] was 24.4 nM; in experiment [2], 0.174 nM.

Turning to `CC(C)CCN(C(=O)CCc1ccccc1)c1ncc(C(=O)NCCCn2ccnc2)s1` [Example 137, N-[3-(1H-imidazol-1-yl)propyl]-2-[(3-methylbutyl)(3-phenylpropanoyl)amino]-1,3-thiazole-5-carboxamide], the concentration for half-maximal inhibition (IC50) in experiment [1] came out at 40.2 nM; in experiment [2], 0.236 nM.

For `CC(C)CCN(C(=O)C(C)c1ccccc1)c1ncc(C(=O)NCCCn2ccnc2)s1` (stereo not drawn) [Example 138, N-[3-(1H-imidazol-1-yl)propyl]-2-[(3-methylbutyl)(2-phenylpropanoyl)amino]-1,3-thiazole-5-carboxamide], the results for the IC50 in experiment [1] and in experiment [2] were 55.5 nM and 0.541 nM, respectively.

Turning to `CC(C)CCN(C(=O)Cc1ccc(F)cc1)c1ncc(C(=O)NCCCn2ccnc2)s1` [Example 139, 2-{[(4-fluorophenyl)acetyl](3-methylbutyl)amino}-N-[3-(1H-imidazol-1-yl)propyl]-1,3-thiazole-5-carboxamide], the figures for the IC50 in experiment [1] and in experiment [2] were 56.1 nM and 0.251 nM, respectively.

Regarding `N#Cc1ccc(CN(C(=O)NCCC(N)=O)c2ncc(C(=O)NCCCn3ccnc3)s2)cc1` [Example 140, 2-{[(3-amino-3-oxopropyl)carbamoyl](4-cyanobenzyl)amino}-N-[3-(1H-imidazol-1-yl)propyl]-1,3-thiazole-5-carboxamide], the concentration for half-maximal inhibition (IC50) in experiment [1] was greater than 10000 nM; in experiment [2], 22.3 nM.

As to `CC(=O)NCC(C)CNC(=O)N(Cc1ccc(C#N)cc1)c1ncc(C(=O)NCCCn2ccnc2)s1` (stereo not drawn) [Example 141, 2-[{[3-(acetylamino)-2-methylpropyl]carbamoyl}(4-cyanobenzyl)amino]-N-[3-(1H-imidazol-1-yl)propyl]-1,3-thiazole-5-carboxamide], the 50% inhibitory concentration (IC50) was greater than 10000 nM in experiment [1] and 23.1 nM in experiment [2].

In the case of `CN(C)C(=O)CCNC(=O)N(Cc1ccc(C#N)cc1)c1ncc(C(=O)NCCCn2ccnc2)s1` [Example 142, 2-[(4-cyanobenzyl){[3-(dimethylamino)-3-oxopropyl]carbamoyl}amino]-N-[3-(1H-imidazol-1-yl)propyl]-1,3-thiazole-5-carboxamide], the IC50 in experiment [1] stood at 6040 nM; in experiment [2] it was 16.9 nM.

Take `CCOCC(O)CNC(=O)N(Cc1ccc(C#N)cc1)c1ncc(C(=O)NCCCn2ccnc2)s1` (stereo not drawn) [Example 143, 2-{(4-cyanobenzyl)[(3-ethoxy-2-hydroxypropyl)carbamoyl]amino}-N-[3-(1H-imidazol-1-yl)propyl]-1,3-thiazole-5-carboxamide]: the figures for the half-inhibitory concentration (IC50) in experiment [1] and in experiment [2] were greater than 10000 nM and 13.7 nM, respectively.

In the case of `CCN(CC)CCCNC(=O)N(Cc1ccc(C#N)cc1)c1ncc(C(=O)NCCCn2ccnc2)s1` [Example 144, 2-[(4-cyanobenzyl){[3-(diethylamino)propyl]carbamoyl}amino]-N-[3-(1H-imidazol-1-yl)propyl]-1,3-thiazole-5-carboxamide], the IC50 in experiment [1] was greater than 10000 nM; in experiment [2], 33.2 nM.

With `CC(=O)NCCNC(=O)N(Cc1ccc(C#N)cc1)c1ncc(C(=O)NCCCn2ccnc2)s1` [Example 145, 2-[{[2-(acetylamino)ethyl]carbamoyl}(4-cyanobenzyl)amino]-N-[3-(1H-imidazol-1-yl)propyl]-1,3-thiazole-5-carboxamide], the IC50 in experiment [1] was greater than 10000 nM; in experiment [2] it was 107 nM.

Regarding `CCN(CC)CCNC(=O)N(Cc1ccc(C#N)cc1)c1ncc(C(=O)NCCCn2ccnc2)s1` [Example 146, 2-[(4-cyanobenzyl){[2-(diethylamino)ethyl]carbamoyl}amino]-N-[3-(1H-imidazol-1-yl)propyl]-1,3-thiazole-5-carboxamide], the IC50 in experiment [1] is greater than 10000 nM; in experiment [2], 98 nM.

Turning to `CC(C)C(=O)NCCNC(=O)N(Cc1ccc(C#N)cc1)c1ncc(C(=O)NCCCn2ccnc2)s1` [Example 147, 2-[(4-cyanobenzyl)({2-[(2-methylpropanoyl)amino]ethyl}carbamoyl)amino]-N-[3-(1H-imidazol-1-yl)propyl]-1,3-thiazole-5-carboxamide], the IC50 in experiment [1] is greater than 10000 nM; in experiment [2], 71.9 nM.

`C=C[C@H](CO)NC(=O)N(Cc1ccc(C#N)cc1)c1ncc(C(=O)NCCCn2ccnc2)s1` [Example 148, 2-[(4-cyanobenzyl){[(2R)-1-hydroxybut-3-en-2-yl]carbamoyl}amino]-N-[3-(1H-imidazol-1-yl)propyl]-1,3-thiazole-5-carboxamide]: the results for the IC50 in experiment [1] and in experiment [2] were greater than 10000 nM and 60.6 nM, respectively.

As for `N#Cc1ccc(CN(C(=O)NCCCN2CC(O)C2)c2ncc(C(=O)NCCCn3ccnc3)s2)cc1` [Example 149, 2-[(4-cyanobenzyl){[3-(3-hydroxyazetidin-1-yl)propyl]carbamoyl}amino]-N-[3-(1H-imidazol-1-yl)propyl]-1,3-thiazole-5-carboxamide], the concentration for half-maximal inhibition (IC50) in experiment [1] was greater than 10000 nM; in experiment [2], 94.2 nM.

On to `COCCC(=O)N(CCC(C)C)c1ncc(C(=O)NCCCn2ccnc2)s1` [Example 150, N-[3-(1H-imidazol-1-yl)propyl]-2-[(3-methoxypropanoyl)(3-methylbutyl)amino]-1,3-thiazole-5-carboxamide], for which the IC50 turned out to be 252 nM in experiment [1] and 0.21 nM in experiment [2].

On to `COCC(=O)N(CCC(C)C)c1ncc(C(=O)NCCCn2ccnc2)s1` [Example 151, N-[3-(1H-imidazol-1-yl)propyl]-2-[(methoxyacetyl)(3-methylbutyl)amino]-1,3-thiazole-5-carboxamide], for which the IC50 worked out at 219 nM in experiment [1] and 0.412 nM in experiment [2].

Turning to `CC(C)CCN(C(=O)C1CC1)c1ncc(C(=O)NCCCn2ccnc2)s1` [Example 152, 2-[(cyclopropylcarbonyl)(3-methylbutyl)amino]-N-[3-(1H-imidazol-1-yl)propyl]-1,3-thiazole-5-carboxamide], the IC50 in experiment [1] turned out to be 768 nM; in experiment [2], 0.232 nM.

For the compound `CC(=O)O[C@@H](C)C(=O)N(CCC(C)C)c1ncc(C(=O)NCCCn2ccnc2)s1` [Example 153, (2S)-1-[(5-{[3-(1H-imidazol-1-yl)propyl]carbamoyl}-1,3-thiazol-2-yl)(3-methylbutyl)amino]-1-oxopropan-2-yl acetate], the values for the IC50 in experiment [1] and in experiment [2] were 1430 nM and 0.286 nM, respectively.

Consider `CC(C)CCN(C(=O)CC1CCOCC1)c1ncc(C(=O)NCCCn2ccnc2)s1` [Example 154, N-[3-(1H-imidazol-1-yl)propyl]-2-[(3-methylbutyl)(tetrahydro-2H-pyran-4-ylacetyl)amino]-1,3-thiazole-5-carboxamide], for which the IC50 is 230 nM in experiment [1] and 0.518 nM in experiment [2].

Turning to `CC(C)CCN(C(=O)C1CCOC1)c1ncc(C(=O)NCCCn2ccnc2)s1` (stereo not drawn) [Example 155, N-[3-(1H-imidazol-1-yl)propyl]-2-[(3-methylbutyl)(tetrahydrofuran-3-ylcarbonyl)amino]-1,3-thiazole-5-carboxamide], the IC50 was found to be 669 nM in experiment [1] and 0.254 nM in experiment [2].

With `CCOC(=O)CCNC(=O)N(Cc1ccc(C#N)cc1)c1ncc(C(=O)NCCCn2ccnc2)s1` [Example 159, ethyl N-[(4-cyanobenzyl)(5-{[3-(1H-imidazol-1-yl)propyl]carbamoyl}-1,3-thiazol-2-yl)carbamoyl]-beta-alaninate], the 50% inhibitory concentration (IC50) in experiment [1] is 8230 nM; in experiment [2] it was 291 nM.

As to `CCOC(=O)CCCNC(=O)N(Cc1ccc(C#N)cc1)c1ncc(C(=O)NCCCn2ccnc2)s1` [Example 160, ethyl 4-{[(4-cyanobenzyl)(5-{[3-(1H-imidazol-1-yl)propyl]carbamoyl}-1,3-thiazol-2-yl)carbamoyl]amino}butanoate], the IC50 in experiment [1] is greater than 10000 nM; in experiment [2], 195 nM.

As to `CCOC(=O)CC(C)NC(=O)N(Cc1ccc(C#N)cc1)c1ncc(C(=O)NCCCn2ccnc2)s1` (stereo not drawn) [Example 161, ethyl 3-{[(4-cyanobenzyl)(5-{[3-(1H-imidazol-1-yl)propyl]carbamoyl}-1,3-thiazol-2-yl)carbamoyl]amino}butanoate], the 50% inhibitory concentration (IC50) in experiment [1] is greater than 10000 nM; in experiment [2] it was 215 nM.

`CCOC(=O)CC(NC(=O)N(Cc1ccc(C#N)cc1)c1ncc(C(=O)NCCCn2ccnc2)s1)C(C)C` (stereo not drawn) [Example 162, ethyl 3-{[(4-cyanobenzyl)(5-{[3-(1H-imidazol-1-yl)propyl]carbamoyl}-1,3-thiazol-2-yl)carbamoyl]amino}-4-methylpentanoate]: the half-maximal inhibitory concentration (IC50) in experiment [1] stood at 3330 nM; in experiment [2], 187 nM.
